From the kinase profiling compilation of Christmann-Franck et al. (2016)

Legend:
Test in all cases: radiometric filter-binding kinase assay, Kinase HotSpot
Conditions in all cases: compound 0.5 µM; ATP 10 µM
GRK5 (human) = GRK5 (human) (UniProt P34947)
STK11 (human) = STK11 (human) (UniProt Q15831)
TSSK2 (human) = TSSK2 (human) (UniProt Q96PF2)
CLK2 (human) = CLK2 (human) (UniProt P49760)
CSNK1E (human) = CSNK1E (human) (UniProt P49674)
RIPK2 (human) = RIPK2 (human) (UniProt O43353)
SRC (human) = SRC (human) (UniProt P12931)
CSNK1G3 (human) = CSNK1G3 (human) (UniProt Q9Y6M4)
FGFR4 (human) = FGFR4 (human) (UniProt P22455)
PHKG1 (human) = PHKG1 (human) (UniProt Q16816)
AURKB (human) = AURKB (human) (UniProt Q96GD4)
RPS6KA4 KD2 (human) = RPS6KA4 KD2 (human) (UniProt O75676)
ERBB4 (human) = ERBB4 (human) (UniProt Q15303)
TEC (human) = TEC (human) (UniProt P42680)
WNK2 (human) = WNK2 (human) (UniProt Q9Y3S1)
FLT3 (human) = FLT3 (human) (UniProt P36888)
CDK7 CCNH MNAT1 (human) = CDK7 CCNH MNAT1 (human) (UniProt P50613+P51948+P51946)
MERTK (human) = MERTK (human) (UniProt Q12866)
DAPK1 (human) = DAPK1 (human) (UniProt P53355)
MAPK9 (human) = MAPK9 (human) (UniProt P45984)
Sequence of MAPK9 (human) (P45984 whole entry, looked up): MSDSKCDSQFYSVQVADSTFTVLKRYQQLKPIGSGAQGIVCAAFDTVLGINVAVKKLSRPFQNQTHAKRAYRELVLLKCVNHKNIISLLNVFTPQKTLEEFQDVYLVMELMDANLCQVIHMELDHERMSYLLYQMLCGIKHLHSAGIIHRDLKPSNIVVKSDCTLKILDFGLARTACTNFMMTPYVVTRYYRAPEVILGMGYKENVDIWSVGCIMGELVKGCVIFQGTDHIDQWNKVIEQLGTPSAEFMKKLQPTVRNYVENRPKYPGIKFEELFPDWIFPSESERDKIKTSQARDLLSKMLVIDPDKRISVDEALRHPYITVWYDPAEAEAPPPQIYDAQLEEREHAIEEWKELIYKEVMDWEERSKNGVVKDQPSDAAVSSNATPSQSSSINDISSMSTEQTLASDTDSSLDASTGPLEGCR

HIPK4 (human) = HIPK4 (human) (UniProt Q8NE63)
PIM1 (human) = PIM1 (human) (UniProt P11309)
MYLK2 (human) = MYLK2 (human) (UniProt Q9H1R3)
MAP3K9 (human) = MAP3K9 (human) (UniProt P80192)
Sequence of MAP3K9 (human) (P80192 whole entry, looked up): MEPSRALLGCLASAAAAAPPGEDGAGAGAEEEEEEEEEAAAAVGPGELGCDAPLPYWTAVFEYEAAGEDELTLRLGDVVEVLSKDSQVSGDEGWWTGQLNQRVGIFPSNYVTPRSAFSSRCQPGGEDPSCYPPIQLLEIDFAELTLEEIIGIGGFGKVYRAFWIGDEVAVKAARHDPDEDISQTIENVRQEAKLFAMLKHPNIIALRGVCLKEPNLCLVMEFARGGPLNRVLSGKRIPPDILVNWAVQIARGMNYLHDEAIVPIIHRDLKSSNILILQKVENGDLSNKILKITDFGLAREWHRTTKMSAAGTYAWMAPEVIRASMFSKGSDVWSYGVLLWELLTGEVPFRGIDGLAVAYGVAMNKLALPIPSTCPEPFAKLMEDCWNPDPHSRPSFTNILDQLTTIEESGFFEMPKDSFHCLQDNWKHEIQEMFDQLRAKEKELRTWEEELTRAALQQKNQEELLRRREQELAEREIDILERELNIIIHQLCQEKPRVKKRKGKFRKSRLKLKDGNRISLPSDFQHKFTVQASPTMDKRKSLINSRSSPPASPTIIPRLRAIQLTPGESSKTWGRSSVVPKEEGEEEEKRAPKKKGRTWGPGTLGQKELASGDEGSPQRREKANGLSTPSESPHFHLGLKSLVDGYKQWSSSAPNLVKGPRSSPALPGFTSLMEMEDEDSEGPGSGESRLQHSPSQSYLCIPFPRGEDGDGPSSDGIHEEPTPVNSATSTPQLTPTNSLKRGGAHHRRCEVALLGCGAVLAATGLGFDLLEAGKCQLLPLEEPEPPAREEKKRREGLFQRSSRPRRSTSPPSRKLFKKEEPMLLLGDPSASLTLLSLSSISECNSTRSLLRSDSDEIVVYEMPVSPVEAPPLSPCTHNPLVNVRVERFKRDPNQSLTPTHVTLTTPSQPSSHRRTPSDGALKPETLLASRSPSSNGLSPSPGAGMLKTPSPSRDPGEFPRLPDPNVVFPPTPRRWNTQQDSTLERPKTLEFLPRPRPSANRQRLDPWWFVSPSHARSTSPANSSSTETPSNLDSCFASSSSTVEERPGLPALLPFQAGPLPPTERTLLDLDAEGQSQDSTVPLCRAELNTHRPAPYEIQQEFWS

EPHB1 (human) = EPHB1 (human) (UniProt P54762)
RPS6KB2 (human) = RPS6KB2 (human) (UniProt Q9UBS0)
Sequence of RPS6KB2 (human) (Q9UBS0 whole entry, looked up): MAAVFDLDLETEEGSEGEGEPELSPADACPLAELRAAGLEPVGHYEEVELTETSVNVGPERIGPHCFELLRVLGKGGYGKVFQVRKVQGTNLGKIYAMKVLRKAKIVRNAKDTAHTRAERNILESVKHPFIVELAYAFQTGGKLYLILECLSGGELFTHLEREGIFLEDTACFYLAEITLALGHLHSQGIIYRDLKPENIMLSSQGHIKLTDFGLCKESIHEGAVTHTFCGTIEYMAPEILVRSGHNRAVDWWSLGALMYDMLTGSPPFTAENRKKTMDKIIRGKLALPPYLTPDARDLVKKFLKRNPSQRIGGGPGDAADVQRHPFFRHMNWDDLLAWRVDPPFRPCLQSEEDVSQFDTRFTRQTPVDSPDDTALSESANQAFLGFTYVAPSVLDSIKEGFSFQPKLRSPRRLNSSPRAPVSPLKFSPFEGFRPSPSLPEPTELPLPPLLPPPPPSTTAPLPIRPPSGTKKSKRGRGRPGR

DCLK2 (human) = DCLK2 (human) (UniProt Q8N568)
Sequence of DCLK2 (human) (Q8N568 whole entry, looked up): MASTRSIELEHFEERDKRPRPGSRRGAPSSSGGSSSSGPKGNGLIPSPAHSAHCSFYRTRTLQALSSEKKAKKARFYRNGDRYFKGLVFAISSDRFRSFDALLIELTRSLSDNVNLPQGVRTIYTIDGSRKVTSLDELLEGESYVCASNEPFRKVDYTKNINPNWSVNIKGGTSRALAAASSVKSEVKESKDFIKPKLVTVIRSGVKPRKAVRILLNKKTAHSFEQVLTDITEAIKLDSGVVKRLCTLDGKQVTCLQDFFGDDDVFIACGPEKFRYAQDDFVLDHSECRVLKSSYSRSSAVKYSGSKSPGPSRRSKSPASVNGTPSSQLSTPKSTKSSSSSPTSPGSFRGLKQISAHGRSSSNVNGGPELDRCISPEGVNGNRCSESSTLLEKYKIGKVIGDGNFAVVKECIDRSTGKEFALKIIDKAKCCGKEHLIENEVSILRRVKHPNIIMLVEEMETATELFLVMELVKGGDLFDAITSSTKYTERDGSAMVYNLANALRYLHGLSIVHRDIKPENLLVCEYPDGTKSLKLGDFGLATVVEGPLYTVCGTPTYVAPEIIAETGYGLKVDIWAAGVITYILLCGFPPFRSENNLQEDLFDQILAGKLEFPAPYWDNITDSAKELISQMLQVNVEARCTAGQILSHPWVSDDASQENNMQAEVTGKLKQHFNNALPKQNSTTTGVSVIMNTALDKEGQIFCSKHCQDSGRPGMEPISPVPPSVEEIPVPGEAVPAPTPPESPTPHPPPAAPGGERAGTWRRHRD

MAP3K10 (human) = MAP3K10 (human) (UniProt Q02779)
Sequence of MAP3K10 (human) (Q02779 whole entry, looked up): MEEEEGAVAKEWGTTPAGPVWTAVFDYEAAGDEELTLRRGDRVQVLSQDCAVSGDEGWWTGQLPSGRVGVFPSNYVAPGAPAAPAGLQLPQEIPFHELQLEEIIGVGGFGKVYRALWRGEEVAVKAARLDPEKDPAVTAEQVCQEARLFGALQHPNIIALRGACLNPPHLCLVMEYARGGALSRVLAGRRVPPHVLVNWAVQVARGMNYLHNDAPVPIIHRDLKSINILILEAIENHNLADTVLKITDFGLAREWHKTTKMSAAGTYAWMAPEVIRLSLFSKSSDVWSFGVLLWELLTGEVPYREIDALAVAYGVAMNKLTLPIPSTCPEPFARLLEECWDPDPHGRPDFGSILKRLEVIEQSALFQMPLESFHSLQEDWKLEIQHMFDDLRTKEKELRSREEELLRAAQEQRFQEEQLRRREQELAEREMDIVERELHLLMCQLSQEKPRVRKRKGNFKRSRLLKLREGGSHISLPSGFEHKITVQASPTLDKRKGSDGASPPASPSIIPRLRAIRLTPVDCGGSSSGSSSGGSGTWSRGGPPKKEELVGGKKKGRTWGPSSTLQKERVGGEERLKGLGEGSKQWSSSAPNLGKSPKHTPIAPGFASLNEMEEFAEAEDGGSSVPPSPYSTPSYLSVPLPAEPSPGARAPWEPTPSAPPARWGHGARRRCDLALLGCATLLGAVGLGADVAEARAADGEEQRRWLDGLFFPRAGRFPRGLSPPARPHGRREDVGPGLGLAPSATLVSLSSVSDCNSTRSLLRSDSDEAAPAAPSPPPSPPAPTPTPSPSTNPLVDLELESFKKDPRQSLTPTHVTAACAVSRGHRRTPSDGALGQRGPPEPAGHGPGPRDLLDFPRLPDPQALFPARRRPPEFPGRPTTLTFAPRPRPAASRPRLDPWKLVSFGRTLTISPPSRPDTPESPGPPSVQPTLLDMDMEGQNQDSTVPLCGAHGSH

KDR (human) = KDR (human) (UniProt P35968)
PKN1 (human) = PKN1 (human) (UniProt Q16512)
ROCK2 (human) = ROCK2 (human) (UniProt O75116)
AKT1 (human) = AKT1 (human) (UniProt P31749)
[1] = test system: PRKCQ (human), Q04759 [P330L]
Sequence of PRKCQ (human), Q04759 [P330L] (Q04759 whole entry P330L, looked up): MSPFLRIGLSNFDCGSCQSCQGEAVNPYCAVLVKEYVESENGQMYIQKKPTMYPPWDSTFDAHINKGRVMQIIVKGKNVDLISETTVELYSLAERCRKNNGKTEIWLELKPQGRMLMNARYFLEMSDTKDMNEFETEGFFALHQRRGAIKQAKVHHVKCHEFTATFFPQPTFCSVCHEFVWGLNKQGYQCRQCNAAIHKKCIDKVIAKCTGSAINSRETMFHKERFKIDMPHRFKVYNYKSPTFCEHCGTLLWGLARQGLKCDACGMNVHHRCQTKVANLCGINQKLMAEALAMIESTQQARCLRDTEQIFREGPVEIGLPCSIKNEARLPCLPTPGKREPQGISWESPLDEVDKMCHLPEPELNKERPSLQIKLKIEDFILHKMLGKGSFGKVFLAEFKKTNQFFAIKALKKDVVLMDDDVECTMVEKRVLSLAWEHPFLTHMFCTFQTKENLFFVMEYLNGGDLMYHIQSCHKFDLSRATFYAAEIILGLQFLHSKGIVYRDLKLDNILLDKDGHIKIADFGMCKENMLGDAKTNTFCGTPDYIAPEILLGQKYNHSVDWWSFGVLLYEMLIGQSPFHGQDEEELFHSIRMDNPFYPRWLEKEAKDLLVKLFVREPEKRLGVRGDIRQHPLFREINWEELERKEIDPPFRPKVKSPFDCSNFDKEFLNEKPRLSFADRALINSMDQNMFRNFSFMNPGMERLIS

[2] = target: TYK2 JH1 catalytic (human) (UniProt P29597)
DYRK4 (human) = DYRK4 (human) (UniProt Q9NR20)
Sequence of DYRK4 (human) (Q9NR20 whole entry, looked up): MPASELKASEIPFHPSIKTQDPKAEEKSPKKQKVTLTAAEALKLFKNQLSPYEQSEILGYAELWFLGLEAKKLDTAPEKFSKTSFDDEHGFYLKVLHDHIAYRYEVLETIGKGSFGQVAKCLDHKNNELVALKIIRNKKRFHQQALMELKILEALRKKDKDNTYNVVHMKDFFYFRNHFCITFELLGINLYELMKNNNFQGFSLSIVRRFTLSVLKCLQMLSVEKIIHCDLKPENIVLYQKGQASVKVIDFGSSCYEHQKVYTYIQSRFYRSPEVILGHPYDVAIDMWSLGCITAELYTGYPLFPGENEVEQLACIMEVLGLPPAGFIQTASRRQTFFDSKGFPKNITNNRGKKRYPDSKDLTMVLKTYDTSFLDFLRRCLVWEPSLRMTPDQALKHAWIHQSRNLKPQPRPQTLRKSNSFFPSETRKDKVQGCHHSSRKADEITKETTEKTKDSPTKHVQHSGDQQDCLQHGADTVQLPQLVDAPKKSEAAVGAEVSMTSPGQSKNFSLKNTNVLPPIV

MELK (human) = MELK (human) (UniProt Q14680)
INSR (human) = INSR (human) (UniProt P06213)
FYN (human) = FYN (human) (UniProt P06241)
CDK4 CCND3 (human) = CDK4 CCND3 (human) (UniProt P30281+P11802)
INSRR (human) = INSRR (human) (UniProt P14616)
[3] = test system: MKNK1 (human), Q9BUB5 [T385D; 165-205 del]

SMILES: Cn1c2ccccc2c2c3c(c4c5ccccc5n(CCC#N)c4c21)CNC3=O
- residual activity (GRK5 (human)): 89.1%
- residual activity (STK11 (human)): 31.8%
- residual activity (TSSK2 (human)): 74.3%
- residual activity (CLK2 (human)): 88.7%
- residual activity (CSNK1E (human)): 80.4%
- residual activity (RIPK2 (human)): 55.1%
- residual activity (SRC (human)): 74.8%
- residual activity (CSNK1G3 (human)): 137%
- residual activity (FGFR4 (human)): 86.5%
- residual activity (PHKG1 (human)): 1.76%
- residual activity (AURKB (human)): 33.1%
- residual activity (RPS6KA4 KD2 (human)): 29.9%
- residual activity (ERBB4 (human)): 100%
- residual activity (TEC (human)): 96.4%
- residual activity (WNK2 (human)): 103%
- residual activity (FLT3 (human)): 5.27%
- residual activity (CDK7 CCNH MNAT1 (human)): 84.6%
- residual activity (MERTK (human)): 59.9%
- residual activity (DAPK1 (human)): 102%
- residual activity (MAPK9 (human)): 86%
- residual activity (HIPK4 (human)): 103%
- residual activity (PIM1 (human)): 36.1%
- residual activity (MYLK2 (human)): 59.6%
- residual activity (MAP3K9 (human)): 1.49%
- residual activity (EPHB1 (human)): 95%
- residual activity (RPS6KB2 (human)): 21.6%
- residual activity (DCLK2 (human)): 84.7%
- residual activity (MAP3K10 (human)): 25.8%
- residual activity (KDR (human)): 57%
- residual activity (PKN1 (human)): 10.3%
- residual activity (ROCK2 (human)): 48.5%
- residual activity (AKT1 (human)): 108%
- residual activity [1]: 76.3%
- residual activity [2]: 2.62%
- residual activity (DYRK4 (human)): 95.7%
- residual activity (MELK (human)): 21.1%
- residual activity (INSR (human)): 89.3%
- residual activity (FYN (human)): 90.6%
- residual activity (CDK4 CCND3 (human)): 44.5%
- residual activity (INSRR (human)): 82.5%
- residual activity [3]: 75.2%

SMILES: O=C1C(Cl)=C(N2C(=O)CCC2=O)C(=O)c2ccccc21
- residual activity (GRK5 (human)): 91.5%
- residual activity (STK11 (human)): 99.8%
- residual activity (TSSK2 (human)): 103%
- residual activity (CLK2 (human)): 90.7%
- residual activity (CSNK1E (human)): 102%
- residual activity (RIPK2 (human)): 84.8%
- residual activity (SRC (human)): 95.1%
- residual activity (CSNK1G3 (human)): 93.5%
- residual activity (FGFR4 (human)): 105%
- residual activity (PHKG1 (human)): 96.5%
- residual activity (AURKB (human)): 103%
- residual activity (RPS6KA4 KD2 (human)): 115%
- residual activity (ERBB4 (human)): 110%
- residual activity (TEC (human)): 101%
- residual activity (WNK2 (human)): 108%
- residual activity (FLT3 (human)): 108%
- residual activity (CDK7 CCNH MNAT1 (human)): 101%
- residual activity (MERTK (human)): 90.3%
- residual activity (DAPK1 (human)): 101%
- residual activity (MAPK9 (human)): 93.6%
- residual activity (HIPK4 (human)): 98.2%
- residual activity (PIM1 (human)): 100%
- residual activity (MYLK2 (human)): 98.1%
- residual activity (MAP3K9 (human)): 106%
- residual activity (EPHB1 (human)): 97.2%
- residual activity (RPS6KB2 (human)): 102%
- residual activity (DCLK2 (human)): 100%
- residual activity (MAP3K10 (human)): 92.8%
- residual activity (KDR (human)): 88.3%
- residual activity (PKN1 (human)): 108%
- residual activity (ROCK2 (human)): 91.5%
- residual activity (AKT1 (human)): 103%
- residual activity [1]: 114%
- residual activity [2]: 102%
- residual activity (DYRK4 (human)): 94.1%
- residual activity (MELK (human)): 96.4%
- residual activity (INSR (human)): 105%
- residual activity (FYN (human)): 111%
- residual activity (CDK4 CCND3 (human)): 107%
- residual activity (INSRR (human)): 96.9%
- residual activity [3]: 135%
